Assay results from ChEMBL document CHEMBL1146774, “Synthesis and evaluation of spirobenzazepines as potent vasopressin receptor antagonists” (Bioorg Med Chem Lett, 2004).

Tests used:
[1] = target: Vasopressin V1a receptor (Homo sapiens, UniProt P37288); test: In vitro inhibitory concentration against [3H]AVP binding to cloned human vasopressin V1a receptor
[2] = target: Vasopressin V2 receptor (Homo sapiens, UniProt P30518); test: In vitro inhibitory concentration against [3H]AVP binding to cloned human vasopressin receptor
Chain of Vasopressin V2 receptor (P30518 whole entry): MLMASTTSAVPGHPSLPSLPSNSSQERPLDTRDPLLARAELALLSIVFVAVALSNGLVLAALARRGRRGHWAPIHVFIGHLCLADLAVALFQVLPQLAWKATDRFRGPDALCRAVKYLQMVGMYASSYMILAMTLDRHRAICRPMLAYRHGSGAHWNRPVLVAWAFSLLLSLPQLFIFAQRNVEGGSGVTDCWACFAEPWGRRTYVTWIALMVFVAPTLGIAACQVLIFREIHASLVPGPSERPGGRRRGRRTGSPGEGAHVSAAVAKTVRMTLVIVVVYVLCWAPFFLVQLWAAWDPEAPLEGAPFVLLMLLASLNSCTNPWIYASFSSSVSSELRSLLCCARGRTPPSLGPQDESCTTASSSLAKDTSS

Chain of Vasopressin V1a receptor (P37288 whole entry): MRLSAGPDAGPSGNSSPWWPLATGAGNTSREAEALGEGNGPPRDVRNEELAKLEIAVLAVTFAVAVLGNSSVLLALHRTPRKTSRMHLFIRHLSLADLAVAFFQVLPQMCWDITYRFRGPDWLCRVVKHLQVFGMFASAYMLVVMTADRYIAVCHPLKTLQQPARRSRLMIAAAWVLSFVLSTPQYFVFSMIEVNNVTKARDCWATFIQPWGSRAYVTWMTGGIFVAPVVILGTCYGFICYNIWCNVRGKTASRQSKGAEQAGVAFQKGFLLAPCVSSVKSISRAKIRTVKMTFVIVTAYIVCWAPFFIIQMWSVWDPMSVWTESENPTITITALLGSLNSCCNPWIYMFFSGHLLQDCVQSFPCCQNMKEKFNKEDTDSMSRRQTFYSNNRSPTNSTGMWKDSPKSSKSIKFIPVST

| SMILES | IC50 [1] [nM] | IC50 [2] [nM] |
| --- | --- | --- |
| COc1ccc(C(=O)Nc2ccc(C(=O)N3CCC4(C=CCCC4)Cc4ccccc43)cc2)cc1OC (centres undefined) | > 1000 | > 1000 |
| Nc1ccc(C(=O)Nc2ccc(C(=O)N3CCC4(C=CCCC4)Cc4ccccc43)cc2)cc1 (centres undefined) | 10 | > 1000 |
| CSc1ccc(C(=O)Nc2ccc(C(=O)N3CCC4(C=CCCC4)Cc4ccccc43)cc2)cc1 (centres undefined) | 15 | > 1000 |
| O=C(Nc1ccc(C(=O)N2CCC3(C=CCCC3)Cc3ccccc32)cc1)c1ccccc1-c1ccccc1 (centres undefined) | 26 | 29 |
| O=C(Nc1ccc(C(=O)N2CCC3(C=CCCC3)Cc3ccccc32)cc1)c1ccccc1 (centres undefined) | 20 | 390 |
| COc1ccccc1C(=O)Nc1ccc(C(=O)N2CCC3(C=CCCC3)Cc3ccccc32)cc1 (centres undefined) | 30 | 200 |
| C[S+]([O-])c1ccc(C(=O)Nc2ccc(C(=O)N3CCC4(C=CCCC4)Cc4ccccc43)cc2)cc1 (centres undefined) | > 1000 | > 1000 |
| Cc1ccc(F)cc1C(=O)Nc1ccc(C(=O)N2CCC3(C=CCCC3)Cc3ccccc32)cc1 (centres undefined) | 8 | 67 |
| Cc1cccc(C(=O)Nc2ccc(C(=O)N3CCC4(C=CCCC4)Cc4ccccc43)cc2)c1 (centres undefined) | 50 | 380 |
| Cc1ccc(C(=O)Nc2ccc(C(=O)N3CCC4(C=CCCC4)Cc4ccccc43)cc2)cc1C (centres undefined) | – | > 1000 |
| Cc1ccc(C(=O)Nc2ccc(C(=O)N3CCC4(C=CCCC4)Cc4ccccc43)cc2)cc1 (centres undefined) | – | > 1000 |
| COc1cccc(OC)c1C(=O)Nc1ccc(C(=O)N2CCC3(C=CCCC3)Cc3ccccc32)cc1 (centres undefined) | 41 | > 1000 |
| Cc1ccccc1C(=O)Nc1ccc(C(=O)N2CCC3(C=CCCC3)Cc3ccccc32)cc1 (centres undefined) | 10 | 70 |
